One test deals with T1, AmiR (Caulobacter vibrioides, UniProt A0A0H3CAA9).
T1 construct: gene CCNA_02650; His6-SUMO fusion expressed in E. coli Rosetta(DE3)pLysS, tag cut by SUMO protease
In words: HPLC of reaction products. The settings on record: 20 mM HEPES-NaOH, 50 mM NaCl, 1 mM MgCl2, pH 7.5, 37 °C, 16 hr; mixture of anhydro-muropeptides from Slt70-digested sacculi. It is filed as biochemical.

The target of another test is T2, NagZ (Caulobacter vibrioides, UniProt A0A0H3C9G9).
T2 construct: gene CCNA_02085; His6-SUMO fusion expressed in E. coli Rosetta(DE3)pLysS, tag cut by SUMO protease
Put plainly: preincubation with NagZ, then coupled AmiR step and LC-MS. The class given is biochemical. The settings on record: 10 µM NagZ, 50 mM HEPES, 200 mM NaCl, 10% glycerol, pH 7.2, 37 °C, 16 hr.

For another test, the target named is T3, PBP3 (Caulobacter vibrioides, UniProt B8H0A0).
T3 construct: gene ftsI; native protein in crude membrane fraction, gel band
T3 sequence (B8H0A0 1-589): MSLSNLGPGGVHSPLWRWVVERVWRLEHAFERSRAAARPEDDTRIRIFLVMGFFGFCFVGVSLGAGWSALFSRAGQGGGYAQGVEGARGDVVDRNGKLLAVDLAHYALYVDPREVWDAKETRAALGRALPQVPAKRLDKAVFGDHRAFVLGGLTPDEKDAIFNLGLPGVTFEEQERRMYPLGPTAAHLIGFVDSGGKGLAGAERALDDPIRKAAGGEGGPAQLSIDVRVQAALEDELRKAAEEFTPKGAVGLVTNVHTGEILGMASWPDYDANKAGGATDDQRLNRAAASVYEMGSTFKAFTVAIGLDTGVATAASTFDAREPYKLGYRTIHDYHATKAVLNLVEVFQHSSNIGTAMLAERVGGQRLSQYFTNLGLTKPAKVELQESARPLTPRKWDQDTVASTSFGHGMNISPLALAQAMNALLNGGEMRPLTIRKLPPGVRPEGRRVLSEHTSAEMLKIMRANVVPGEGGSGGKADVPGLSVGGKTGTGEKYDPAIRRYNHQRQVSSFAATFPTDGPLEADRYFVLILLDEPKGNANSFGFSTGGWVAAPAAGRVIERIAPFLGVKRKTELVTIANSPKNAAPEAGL
Put plainly: competition with bocillin-FL labelling, SDS-PAGE fluorescence. The class given is cell-based. The settings on record: covalent, crude membranes in PBS.

In the next test the target is T4, CrbA (Caulobacter vibrioides, UniProt A0A0H3C8K5).
T4 construct: native protein in crude membrane fraction, gel band
The test is described as above. The settings on record: covalent; crude membranes in PBS, 1-100 µg/mL ampicillin for 2 hr at room temperature, active-site serine. The class given is cell-based.

T2 sequence (A0A0H3C9G9 entry or part of it): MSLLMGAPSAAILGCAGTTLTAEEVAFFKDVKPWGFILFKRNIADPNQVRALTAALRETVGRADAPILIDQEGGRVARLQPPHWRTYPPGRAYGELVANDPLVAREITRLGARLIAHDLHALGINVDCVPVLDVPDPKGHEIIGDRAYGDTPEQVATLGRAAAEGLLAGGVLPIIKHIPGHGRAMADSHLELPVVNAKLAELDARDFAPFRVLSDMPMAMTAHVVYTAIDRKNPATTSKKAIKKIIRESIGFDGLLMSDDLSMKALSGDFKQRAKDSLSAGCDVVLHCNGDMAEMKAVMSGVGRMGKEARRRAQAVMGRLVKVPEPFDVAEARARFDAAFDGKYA
T4 sequence (A0A0H3C8K5 entry or part of it): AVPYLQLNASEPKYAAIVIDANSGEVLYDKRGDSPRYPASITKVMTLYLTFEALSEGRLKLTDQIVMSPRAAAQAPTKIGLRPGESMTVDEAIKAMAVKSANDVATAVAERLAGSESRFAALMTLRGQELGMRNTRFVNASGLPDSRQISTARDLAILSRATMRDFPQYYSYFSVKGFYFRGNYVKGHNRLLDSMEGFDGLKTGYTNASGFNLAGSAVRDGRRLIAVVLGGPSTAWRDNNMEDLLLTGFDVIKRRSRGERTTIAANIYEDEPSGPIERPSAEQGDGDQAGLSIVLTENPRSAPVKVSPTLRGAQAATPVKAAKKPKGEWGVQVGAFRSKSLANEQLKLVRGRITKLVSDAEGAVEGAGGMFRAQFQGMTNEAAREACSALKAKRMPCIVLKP
T1 sequence (A0A0H3CAA9 entry or part of it): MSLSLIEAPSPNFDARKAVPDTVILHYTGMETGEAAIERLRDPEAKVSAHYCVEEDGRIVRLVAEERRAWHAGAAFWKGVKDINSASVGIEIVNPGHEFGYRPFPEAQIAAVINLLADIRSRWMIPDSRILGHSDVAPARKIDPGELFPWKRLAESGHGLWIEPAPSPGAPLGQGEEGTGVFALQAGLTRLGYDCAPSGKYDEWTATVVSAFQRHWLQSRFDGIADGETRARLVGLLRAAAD

Consider `CC(=O)N[C@H]1[C@H](O[C@H]2[C@H](O[C@H](C)C(=O)N[C@@H](C)C(=O)N[C@H](CCC(=O)N[C@@H](CCC[C@@H](N)C(=O)O)C(=O)N[C@H](C)C(=O)O)C(=O)O)[C@@H](NC(C)=O)[C@@H]3OC[C@H]2O3)O[C@H](CO)[C@@H](O)[C@@H]1O` [GlcNAc–anhMurNAc-tetrapeptide], for which the “HPLC of reaction products” value at AmiR was “AmiR efficiently hydrolyzed tetrapeptide-containing fragments”. Further, on NagZ, the “preincubation with NagZ, then coupled AmiR step and LC-MS” value was “substrate anhMurNAc-tetrapeptide, generated by preincubating purified GlcNAc–anhMurNAc-tetrapeptide with NagZ”.
For `CC1(C)S[C@@H]2[C@H](NC(=O)[C@H](N)c3ccccc3)C(=O)N2[C@H]1C(=O)O` [ampicillin], the “competition with bocillin-FL labelling, SDS-PAGE fluorescence” value on PBP3 (1-100 µg/mL ampicillin for 2 hr at room temperature, active-site serine) is listed as “Among the ampicillin targets identified were the essential, cell division-specific monofunctional transpeptidase PBP3”; at CrbA, “all but one of them (PbpX) remained unlabeled”.
Consider `CC1=C(C(=O)O)N2C(=O)[C@@H](NC(=O)[C@H](N)c3ccccc3)[C@H]2SC1` [cephalexin], for which the “competition with bocillin-FL labelling, SDS-PAGE fluorescence” value at PBP3 (5 µg/mL cefalexin for 2 hr at room temperature) was “The labeling of PBP3 and some bifunctional PBPs was also abolished by preincubation with cephalexin”.

The record behind these values is publication PMC13046382, “Peptidoglycan recycling is critical for cell division, cell wall integrity, and β-lactam resistance in Caulobacter crescentus” (eLife, 2026).
